Reference: US20180092934A1, “COMPOSITION FOR DNA PROTECTION” (priority 2016, published 2018)

What was measured:
[1] = system: alcohol induced DNA damage; assay: Comet assay (SCGE) on whole blood, alcohol-induced DNA damage in rats; format: in vivo, Male Wistar albino rats; settings: single oral dose in 30% alcohol 4 gm/kg, 4 hr data, n = 4
Description: The Single Cell Gel Electrophoresis assay (SCGE, also known as comet assay) is a straightforward and sensitive technique for the detection of DNA damage at the level of the individual eukaryotic cell. It is being used as a standard technique for evaluation of DNA damage/repair, biomonitoring and genotoxicity testing. It involves the encapsulation of cells in a low-melting-point agarose suspension, lysis of the cells in neutral or alkaline (pH>13) conditions, and electrophoresis of the suspended lysed cells. The term “comet” refers to the pattern of DNA migration through the electrophoresis gel, which often resembles a comet (Cheng-Hung Chuang, Miao-Lin Hu. Use of whole blood directly for single-cell gel electrophoresis (comet) assay in vivo and white blood cells for in vitro assay. Mutation Research; 564 (2004) 75-82.).
(§1) Saline/Alcohol (4.0 gm/kg/day, p.o.)/Formulation with alcohol (4.0 gm/kg/day, p.o.) were administered (fed orally by orogastric cannula) for one day. Blood samples were collected before administration of the Saline/Alcohol/Formulation with alcohol and designated as ‘0’ hour, then 2 and 4 hours after the dose. For comet assay one part of the blood was collected in heparinised tube and the other part was allowed to clot to get serum for 8-OHdG assay. Single cell gel electrophoresis (SCGE, the Comet assay) was carried out using whole blood (Cheng-Hung Chuang, Miao-Lin Hu. Use of whole blood directly for single-cell gel electrophoresis (comet) assay in vivo and white blood cells for in vitro assay. Mutation Research; 564 (2004) 75-82.). In short, 15 μl of whole blood was mixed with low melting agarose and fixed on a microscope slide. Those are then lysed by buffer enriched with detergent and high salt. Concomitant electrophoresis at alkaline pH results in unwinding of DNA followed by structures close to comets, when observed by fluorescence microscopy. The intensity of the comet tail relative to the head presents the number of DNA breaks. The probable basis for this is that loops containing a break lose their super coiling and become free to extend toward the anode. This is followed by visual analysis with staining of DNA and calculating fluorescence to determine the extent of DNA damage (Collins, A. R. (2004). “The comet assay for DNA damage and repair: principles, applications, and limitations”. Mol. Biotechnol. 26 (3): 249-261). 8-hydroxy-2-deoxyguanosine was estimated (8-OHdG) by ELISA kit using competitive-ELISA as the method. The microtiter plate is pre-coated with 8-OHdG. 8-OHdG in the sample or standard competes with a fixed amount of 8-OHdG on the solid phase supporter for sites on the Biotinylated Detection Ab specific to 8-OHdG. Excess conjugate and unbound sample or standard were washed from the plate, and Avidin conjugated to Horseradish Peroxidase (HRP) is added to each microplate well. After incubation a TMB substrate solution is added to each well. The enzyme-substrate reaction is terminated by the addition of a sulphuric acid solution and the color change was measured by plate reader at a wavelength of 450 nm±2 nm. The concentration of 8-OHdG in the samples was then determined by comparing the OD of the samples to the standard curve (Szymańska-Chabowska A et al, Evaluation of DNA Damage in People Occupationally Exposed to Arsenic and Some Heavy Metals. Polish J. of Environ. Stud. Vol. 18, No. 6 (2009), 1131-1139).
(§2) % Protection=1−[(T−NS)/(AL−NS)]×100
(§3) T=Mean value of drug treated, NS=Mean value of normal control, AL=Mean value of alcohol alone.
Male Wistar albino rats weighing 150-200 g were procured and randomly divided into groups consisting of four (4) animals in each group. DNA damage was induced by alcohol in rats by oral administration of 30% alcohol (4 gm/kg/p.o.) once (single dose) and this group served as the negative control and treated groups received different formulations. […]

[2] = system: 8-hydroxy-2-deoxyguanosine (8-OHdG); assay: Serum 8-OHdG ELISA, alcohol-induced DNA damage in rats; format: in vivo, Male Wistar albino rats; settings: single oral dose in 30% alcohol 4 gm/kg, 4 hr data, n = 4
Description: In nuclear and mitochondrial DNA, 8-hydroxy-2′-deoxyguanosine (8-OHdG) is one of the predominant forms of free radical-induced oxidative lesions, and is used as a biomarker for oxidative stress. Rat 8-OHdG ELISA kit from Elabscience is used for the assay. (Valavanidis A et al (2009). 8-hydroxy-2′-deoxyguanosine (8-OHdG): A critical biomarker of oxidative stress and carcinogenesis. J Environ Sci Health C Environ Carcinog Ecotoxicol Rev. 27(2):[…]).
as §1, §2, §3
Male Wistar albino rats weighing 150-200 g were procured and randomly divided into groups consisting of four (4) animals in each group. DNA damage was induced by alcohol in rats by oral administration of 30% alcohol (4 gm/kg/p.o.) once (single dose) and this group served as the negative control and treated groups received different formulations.
All drug solutions were prepared in 40% aqueous alcohol, adjusting the pH in the range of 5.0-10.0 for evaluation of alcohol induced DNA damage and protection against it. This solution was further diluted with distilled water to obtain 30% aqueous alcoholic solution and administered orally by gavage to different rats group of step (1a). […]

Structure (SMILES)	COMET Protection [1] [%]	8OHdG Protection [2] [%]
OC[C@@H](O)[C@@H](O)[C@H](O)[C@H](O)CO [1.2 Man, D-Mannitol]	13.59	24.85
CC1(C)[C@@H](O[C@H]2O[C@H](C(=O)O)[C@@H](O)[C@H](O)[C@H]2O[C@@H]2O[C@H](C(=O)O)[C@@H](O)[C@H](O)[C@H]2O)CC[C@]2(C)[C@H]3C(=O)C=C4[C@@H]5C[C@@](C)(C(=O)O)CC[C@]5(C)CC[C@@]4(C)[C@]3(C)CC[C@@H]12 [0.04 18β-GA, 18β-Glycyrrhizin]	0	0
OC[C@@H](O)[C@@H](O)CO [0.8 Ery, D-Erythritol]	8.25	15.98
CC1(C)[C@@H](O[C@H]2O[C@H](C(=O)O)[C@@H](O)[C@H](O)[C@H]2O[C@@H]2O[C@H](C(=O)O)[C@@H](O)[C@H](O)[C@H]2O)CC[C@]2(C)[C@H]3C(=O)C=C4[C@@H]5C[C@@](C)(C(=O)O)CC[C@]5(C)CC[C@@]4(C)[C@]3(C)CC[C@@H]12 [0.1 18β-GA, 18β-Glycyrrhizin]	0.97	3.55
OC[C@@H](O)[C@@H](O)CO [2.5 Ery, D-Erythritol]	34.71	37.28
CC1(C)[C@@H](O[C@H]2O[C@H](C(=O)O)[C@@H](O)[C@H](O)[C@H]2O[C@@H]2O[C@H](C(=O)O)[C@@H](O)[C@H](O)[C@H]2O)CC[C@]2(C)[C@H]3C(=O)C=C4[C@H]5C[C@@](C)(C(=O)O)CC[C@]5(C)CC[C@@]4(C)[C@]3(C)CC[C@@H]12 [0.1 18α-GA, 18α-Glycyrrhizin]	0.59	4.20
CC1(C)[C@@H](O[C@H]2O[C@H](C(=O)O)[C@@H](O)[C@H](O)[C@H]2O[C@@H]2O[C@H](C(=O)O)[C@@H](O)[C@H](O)[C@H]2O)CC[C@]2(C)[C@H]3C(=O)C=C4[C@@H]5C[C@@](C)(C(=O)O)CC[C@]5(C)CC[C@@]4(C)[C@]3(C)CC[C@@H]12 [0.3 18β-GA, 18β-Glycyrrhizin]	6.07	11.24
OC[C@@H](O)[C@@H](O)[C@H](O)[C@H](O)CO [0.8 Man, D-Mannitol]	9.22	14.20
OC[C@@H](O)[C@@H](O)[C@H](O)[C@H](O)CO [0.5 Man, D-Mannitol]	5.34	7.69
OC[C@@H](O)[C@@H](O)[C@H](O)[C@H](O)CO [2.5 Man, D-Mannitol]	33.98	40.24
OC[C@@H](O)[C@@H](O)CO [1.2 Ery, D-Erythritol]	18.69	23.08
CC1(C)[C@@H](O[C@H]2O[C@H](C(=O)O)[C@@H](O)[C@H](O)[C@H]2O[C@@H]2O[C@H](C(=O)O)[C@@H](O)[C@H](O)[C@H]2O)CC[C@]2(C)[C@H]3C(=O)C=C4[C@H]5C[C@@](C)(C(=O)O)CC[C@]5(C)CC[C@@]4(C)[C@]3(C)CC[C@@H]12 [0.3 18α-GA, 18α-Glycyrrhizin]	5.78	10.46
